From US5602106A, “16-membered macrolide derivatives” (priority 1993, dated 1997)
Converted amounts (≈) assume the structure as drawn. Read-outs that look alike come from different tables or passages of the source.

Legend:
Assay type in all cases: cell-based
test strains = experiment: Antimicrobial activity in vitro, test strains overall
Protocol: (§1) The effect of the first aspect of the present invention resides in the creation of a novel and useful 16-membered macrolide derivative. Antimicrobial activities of the compounds of the present invention were determined by measuring minimum inhibitory concentration (MIC). Minimum inhibitory concentration was determined by the agar plate dilution method in the following manner.
(§2) Test strains were subjected to seed culture using Sensitivity test broth (STB, Nissui Pharmaceutical) except that the strains belonging to the genus Streptococcus, Branhamella and Haemophilus were cultured on blood agar plate. A 5 μl portion of cell suspension of the test strains having about 10^6 CFU/ml was inoculated into Sensitivity disk agar (SDA, Nissui Pharmaceutical) supplemented with 5% horse blood and incubated at 37° C. for 20 hours. Then, MIC was measured. […] Antimicrobial activities in vitro of the compounds (1) and (2) are shown in Table 1, and those of the compounds (3) and (4) in Table 3.

S. aureus MS15009/pMS98 = experiment: MIC, agar plate dilution method; details: Staphylococcus aureus, MS15009/PMS98, 20 h, read-out: Antimicrobial activity (MIC), 37° C., 20 hours, SDA with 5% horse blood
Protocol: as §1, §2

S. aureus 209P JC-1 = experiment: MIC, agar plate dilution method; details: Staphylococcus aureus, 209P, 20 h
Protocol: as §1, §2

S. pneumoniae IP692 = experiment: MIC, agar plate dilution method; details: Streptococcus pneumoniae, IP692, 20 h, 37° C., 20 hours, SDA with 5% horse blood; read-out: Antimicrobial activity (MIC)
Protocol: as §1, §2

H. influenzae Type b = experiment: MIC, agar plate dilution method; details: Haemophilus influenzae, 20 h, read-out: Antimicrobial activity (MIC), 37° C., 20 hours, SDA with 5% horse blood
Protocol: as §1, §2

S. aureus MS15009/pMS99 = experiment: MIC, agar plate dilution method; details: Staphylococcus aureus, MS15009/PMS99, 20 h, read-out: Antimicrobial activity (MIC)
Protocol: as §1, §2

K. pneumoniae PCI602 = experiment: MIC, agar plate dilution method; details: Klebsiella pneumoniae, PCI602, 20 h, 37° C., SDA with 5% horse blood, read-out: Antimicrobial activity (MIC)
Protocol: as §1, §2

S. aureus MS15027 = experiment: MIC, agar plate dilution method; details: Staphylococcus aureus, MS15027, 20 h, read-out: Antimicrobial activity (MIC), 37° C., 20 hours, SDA with 5% horse blood
Protocol: as §1, §2

S. aureus M126 = experiment: MIC, agar plate dilution method; details: Staphylococcus aureus, 37° C., 20 hours, SDA with 5% horse blood, read-out: Antimicrobial activity (MIC)
Protocol: as §1, §2

E. coli NIHJ JC-2 = experiment: MIC, agar plate dilution method; details: Escherichia coli, NIHJJC2, 20 h, 37° C., SDA with 5% horse blood, read-out: Antimicrobial activity (MIC)
Protocol: as §1, §2

E. faecalis W-73 = experiment: MIC, agar plate dilution method; details: Enterococcus faecalis, W73, 20 h, read-out: Antimicrobial activity (MIC)
Protocol: as §1, §2

H. influenzae 9334 = experiment: MIC, agar plate dilution method; details: Haemophilus influenzae, 9334, 20 h, read-out: Antimicrobial activity (MIC), 37° C., 20 hours, SDA with 5% horse blood
Protocol: as §1, §2

M. luteus ATCC9341 = experiment: MIC, agar plate dilution method; details: Micrococcus luteus, ATCC9341; 37° C., 20 hours, SDA with 5% horse blood; read-out: Antimicrobial activity (MIC)
Protocol: as §1, §2

B. catarrhalis W-0500 = experiment: MIC, agar plate dilution method; details: Moraxella catarrhalis
Protocol: as §1, §2

S. pyogenes Cook = experiment: MIC, agar plate dilution method; details: Streptococcus pyogenes; 37° C., 20 hours, SDA with 5% horse blood; read-out: Antimicrobial activity (MIC)
Protocol: as §1, §2

S. pneumoniae Type 1 = experiment: MIC, agar plate dilution method; details: Streptococcus pneumoniae, TYPE1; 37° C., 20 hours, SDA with 5% horse blood; read-out: Antimicrobial activity (MIC)
Protocol: as §1, §2

S. epidermidis ATCC14990 = experiment: MIC, agar plate dilution method; details: Staphylococcus epidermidis
Protocol: as §1, §2

B. catarrhalis W-0506 = experiment: MIC, agar plate dilution method; details: Moraxella catarrhalis
Protocol: as §1, §2

S. aureus MS15026 = experiment: MIC, agar plate dilution method; details: Staphylococcus aureus, 37° C., 20 hours, SDA with 5% horse blood, read-out: Antimicrobial activity (MIC)
Protocol: as §1, §2

S. aureus M133 = experiment: MIC, agar plate dilution method; details: Staphylococcus aureus, M133, 20 h
Protocol: as §1, §2

[1] = system: clinically important Gram-positive bacteria; experiment: Antimicrobial activity / growth inhibition
Protocol: as §1, §2

[2] = 37° C., 20 hours, SDA with 5% horse blood, read-out: Antimicrobial activity (MIC)
[3] = W0500, 20 h, read-out: Antimicrobial activity (MIC), 37° C., 20 hours, SDA with 5% horse blood
[4] = ATCC14990, 20 h, read-out: Antimicrobial activity (MIC), 37° C., 20 hours, SDA with 5% horse blood
[5] = W0506, 20 h, read-out: Antimicrobial activity (MIC), 37° C., 20 hours, SDA with 5% horse blood
[6] = read-out: Antimicrobial activity (MIC), 37° C., 20 hours, SDA with 5% horse blood

CO[C@@H]1[C@@H](O[C@@H]2O[C@H](C)[C@@H](O[C@H]3C[C@@](C)(OC)[C@@H](OC(=O)C(C)C)[C@H](C)O3)[C@H](N(C)C)[C@H]2O)[C@@H](CC=O)C[C@@H](C)[C@@H](O)/C=C/C=C/C[C@@H](C)OC(=O)C[C@H]1O [(53), 4"-O-isobutyryl-3"-Omethylleucomycin V]
antimicrobial activities compared with compound (58) (test strains; vs compound (58)): slightly superior antimicrobial activities
antimicrobial activities in comparison with rokitamycin (test strains; vs rokitamycin): markedly excellent antimicrobial activities
MIC (S. aureus MS15009/pMS98): 0.2 µg/mL (≈ 0.254 µM)
MIC (S. aureus 209P JC-1; [2]): 0.05 µg/mL (≈ 0.0636 µM)
MIC (S. pneumoniae IP692): < 0.025 µg/mL
MIC (H. influenzae Type b): 6.25 µg/mL (≈ 7.95 µM)
MIC (S. aureus MS15009/pMS99): > 100 µg/mL
MIC (K. pneumoniae PCI602): > 100 µg/mL
MIC (S. aureus MS15027): 0.2 µg/mL (≈ 0.254 µM)
MIC (S. aureus M126): > 100 µg/mL
MIC (E. coli NIHJ JC-2): > 100 µg/mL
MIC (E. faecalis W-73): 0.78 µg/mL (≈ 0.992 µM)
MIC (H. influenzae 9334): 0.39 µg/mL (≈ 0.496 µM)
MIC (M. luteus ATCC9341): < 0.025 µg/mL
MIC (B. catarrhalis W-0500; [3]): 0.2 µg/mL (≈ 0.254 µM)
MIC (S. pyogenes Cook): < 0.025 µg/mL
MIC (S. pneumoniae Type 1): < 0.025 µg/mL
MIC (S. epidermidis ATCC14990; [4]): 0.2 µg/mL (≈ 0.254 µM)
MIC (B. catarrhalis W-0506; [5]): 0.2 µg/mL (≈ 0.254 µM)
MIC (S. aureus MS15026): > 100 µg/mL
MIC (S. aureus M133; [6]): 0.2 µg/mL (≈ 0.254 µM)
antimicrobial activities (in words) [1]: markedly strong microbial activities

CO[C@@H]1[C@@H](O[C@@H]2O[C@H](C)[C@@H](O[C@H]3C[C@@](C)(OC)[C@@H](OC(=O)CC(C)C)[C@H](C)O3)[C@H](N(C)C)[C@H]2O)[C@@H](CC=O)C[C@@H](C)[C@@H](O)/C=C/C=C/C[C@@H](C)OC(=O)C[C@H]1O [(58), 3"-O-methylleucomycin A1]
MIC (S. aureus MS15009/pMS98): 0.2 µg/mL (≈ 0.25 µM)
MIC (S. aureus 209P JC-1; [2]): 0.05 µg/mL (≈ 0.0625 µM)
MIC (S. pneumoniae IP692): 0.05 µg/mL (≈ 0.0625 µM)
MIC (H. influenzae Type b): 6.25 µg/mL (≈ 7.81 µM)
MIC (S. aureus MS15009/pMS99): > 100 µg/mL
MIC (K. pneumoniae PCI602): > 100 µg/mL
MIC (S. aureus MS15027): 0.2 µg/mL (≈ 0.25 µM)
MIC (S. aureus M126): > 100 µg/mL
MIC (E. coli NIHJ JC-2): > 100 µg/mL
MIC (E. faecalis W-73): 0.78 µg/mL (≈ 0.975 µM)
MIC (H. influenzae 9334): 0.78 µg/mL (≈ 0.975 µM)
MIC (M. luteus ATCC9341): < 0.025 µg/mL
MIC (B. catarrhalis W-0500; [3]): 0.2 µg/mL (≈ 0.25 µM)
MIC (S. pyogenes Cook): 0.05 µg/mL (≈ 0.0625 µM)
MIC (S. pneumoniae Type 1): 0.05 µg/mL (≈ 0.0625 µM)
MIC (S. epidermidis ATCC14990; [4]): 0.2 µg/mL (≈ 0.25 µM)
MIC (B. catarrhalis W-0506; [5]): 0.2 µg/mL (≈ 0.25 µM)
MIC (S. aureus MS15026): > 100 µg/mL
MIC (S. aureus M133; [6]): 0.39 µg/mL (≈ 0.488 µM)
antimicrobial activities (in words) [1]: markedly strong microbial activities

CCC(=O)O[C@@H]1CC(=O)O[C@H](C)C/C=C/C=C/[C@H](O)[C@H](C)C[C@H](CC=O)[C@H](O[C@@H]2O[C@H](C)[C@@H](O[C@H]3C[C@@](C)(OC)[C@@H](O)[C@H](C)O3)[C@H](N(C)C)[C@H]2O)[C@H]1OC [(3), 3"-O-methylmidecamycin M1]
improvement of MIC values over corresponding compounds with free 3"-hydroxyl (midecamycin M1, leucomycin V) (test strains; most of the test strains): improved two to three times
antimicrobial activities in comparison with midecamycin M1 (test strains; presumed in vivo metabolite of compound (5)): superior antimicrobial activities
MIC (S. aureus MS15009/pMS98): 0.78 µg/mL (≈ 1.01 µM)
MIC (S. aureus 209P JC-1; [6]): 0.39 µg/mL (≈ 0.505 µM)
MIC (S. pneumoniae IP692): 0.1 µg/mL (≈ 0.13 µM)
MIC (H. influenzae Type b): 50 µg/mL (≈ 64.8 µM)
MIC (S. aureus MS15009/pMS99): > 100 µg/mL
MIC (K. pneumoniae PCI602): > 100 µg/mL
MIC (S. aureus MS15027): 0.78 µg/mL (≈ 1.01 µM)
MIC (S. aureus M126): > 100 µg/mL
MIC (E. coli NIHJ JC-2): > 100 µg/mL
MIC (E. faecalis W-73): 0.78 µg/mL (≈ 1.01 µM)
MIC (M. luteus ATCC9341): 0.1 µg/mL (≈ 0.13 µM)
MIC (B. catarrhalis W-0500; W0500, 37° C., 20 hours, SDA with 5% horse blood, read-out: Antimicrobial activity (MIC)): 3.13 µg/mL (≈ 4.05 µM)
MIC (S. pyogenes Cook): 0.2 µg/mL (≈ 0.259 µM)
MIC (S. pneumoniae Type 1): 0.1 µg/mL (≈ 0.13 µM)
MIC (S. epidermidis ATCC14990; ATCC14990, 37° C., 20 hours, SDA with 5% horse blood, read-out: Antimicrobial activity (MIC)): 1.56 µg/mL (≈ 2.02 µM)
MIC (B. catarrhalis W-0506; W0506, 37° C., 20 hours, SDA with 5% horse blood, read-out: Antimicrobial activity (MIC)): 3.13 µg/mL (≈ 4.05 µM)
MIC (S. aureus MS15026): > 100 µg/mL
MIC (S. aureus M133; [2]): 1.56 µg/mL (≈ 2.02 µM)
antimicrobial activities (in words) [1]: strong antimicrobial activities
